Laboratory results published in the supplement of paper PMC8633005.

Experiments:
Test in all cases: drug sensitivity score (DSS) (DSS (unitless, 0-50 scale)); higher = more sensitive (stronger viability inhibition); extreme values may be limits of the assay
Conditions in all cases: 72 h; culture: 2D
[1] = system: WM165
How it was run: (§1)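 Patient-derived melanoma cultures and melanoma cell lines were grown in 2D in 384-well plates with a 527-compound oncology library at five concentrations spanning a 10,000-fold range, with 1000–1500 cells per well for the cultures. CellTiter-Glo luminescence gave viability after 72 h at 37 °C. The drug sensitivity score is a modified area-under-curve measure derived from dose-response curves fitted in the in-house Breeze software.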

[2] = system: FM-MEL-6
How it was run: as §1

[3] = system: SK-MEL-2
How it was run: as §1

[4] = system: WM852
How it was run: as §1

[5] = system: SK-MEL-28
How it was run: as §1

[6] = system: FM-MEL-2
How it was run: as §1

[7] = system: FM-MEL-3
How it was run: as §1

[8] = system: Bowes
How it was run: as §1

Structure (SMILES) | drug sensitivity score [1] | drug sensitivity score [2] | drug sensitivity score [3] | drug sensitivity score [4] | drug sensitivity score [5] | drug sensitivity score [6] | drug sensitivity score [7] | drug sensitivity score [8]
CN(C)Cc1ccc(S(=O)(=O)n2ccc(/C=C/C(=O)NO)c2)cc1 [Resminostat] | 9.7 | 7.3 | 7.9 | 2.7 | 4.8 | 6.9 | 6.5 | 2.7
CN(C)C(=O)c1cc2cnc(Nc3ccc(N4CCNCC4)cn3)nc2n1C1CCCC1 [Ribociclib] | 2.8 | 1.6 | 0 | 0.7 | 5.4 | 4.3 | 2.3 | 0
CO[C@H]1C[C@@H]2CC[C@@H](C)[C@@](O)(O2)C(=O)C(=O)N2CCCC[C@H]2C(=O)O[C@H]([C@H](C)C[C@@H]2CC[C@@H](OP(C)(C)=O)[C@H](OC)C2)CC(=O)[C@H](C)/C=C(\C)[C@@H](O)[C@@H](OC)C(=O)[C@H](C)C[C@H](C)/C=C/C=C/C=C/1C [Ridaforolimus] | 7.6 | 2.7 | 0 | 0 | 3.8 | 0.9 | 0 | 0
C[C@H]1CNCCCN1S(=O)(=O)c1cccc2cncc(F)c12 [Ripasudil] | 0.1 | 0 | 0 | 0 | 0 | 0 | 0 | 0
C=CC(=O)Nc1cccc(Nc2nc(Nc3ccc(N4CCN(C(C)=O)CC4)cc3OC)ncc2C(F)(F)F)c1 [Rociletinib] | 7.2 | 3.4 | 2.9 | 3 | 1.1 | 6.6 | 7.9 | 7.7
O=C(CCCCCCNC(=O)c1cnc(N(c2ccccc2)c2ccccc2)nc1)NO [Rocilinostat] | 5.7 | 6.6 | 3.4 | 2.3 | 3.7 | 2.8 | 6.4 | 2
C/C=C1\NC(=O)[C@H]2CSSCC/C=C/[C@H](CC(=O)N[C@H](C(C)C)C(=O)N2)OC(=O)[C@H](C(C)C)NC1=O [Romidepsin] | 30 | 26.5 | 30.4 | 17.9 | 29 | 28.1 | 29.7 | 18.6
Cc1nc(C(=O)NCC(=O)O)c(O)c2ccc(Oc3ccccc3)cc12 [Roxadustat] | 0 | 0 | 0 | 2.1 | 0 | 0 | 0 | 0
CN(C)C[C@@H]1CCn2cc(c3ccccc32)C2=C(C(=O)NC2=O)c2cn(c3ccccc23)CCO1 [Ruboxistaurin] | 8.6 | 7.6 | 4.7 | 6.7 | 9 | 7.2 | 6.5 | 4.5
CNCc1ccc(-c2[nH]c3cc(F)cc4c3c2CCNC4=O)cc1 [Rucaparib] | 3.8 | 0.7 | 0 | 0 | 0 | 0.8 | 0.5 | 0.6
N#CC[C@H](C1CCCC1)n1cc(-c2ncnc3[nH]ccc23)cn1 [Ruxolitinib] | 0 | 0 | 0 | 0.1 | 0 | 0 | 1.4 | 0.1
CC(C)N(CCCNC(=O)Nc1ccc(C(C)(C)C)cc1)C[C@H]1O[C@@H](n2cc(Br)c3c(N)ncnc32)[C@H](O)[C@@H]1O [SGC0946] | 0 | 0.8 | 0 | 2 | 0 | 1.4 | 6.1 | 0
COc1ccc(CCc2nc3cc(-c4c(C)noc4C)ccc3n2C[C@H](C)N2CCOCC2)cc1Cl [SGC-CBP30] | 5.2 | 3 | 0.1 | 0 | 0.9 | 4.9 | 7.4 | 3.6
CN1CCC(CNc2ccc3ncc(-c4cccc(OC(F)(F)F)c4)n3n2)CC1 [SGI-1776] | 6.1 | 5.3 | 4.8 | 6.1 | 6.1 | 5.9 | 5.1 | 5.5
CN(CC(=O)N(Cc1ccc(C2CCCCC2)cc1)c1ccc(C(=O)O)cc1)S(=O)(=O)c1c(F)c(F)c(F)c(F)c1F [SH-4-54] | 16.1 | 5.8 | 5.1 | 6.4 | 5.4 | 5.2 | 8.2 | 7.1
CCc1c2c(nc3ccc(O)cc13)-c1cc3c(c(=O)n1C2)COC(=O)[C@]3(O)CC [SN-38] | 42.7 | 19.7 | 17.3 | 8 | 17 | 11.8 | 24.6 | 19.7
CC(C)(C)c1cnc(CSc2cnc(NC(=O)C3CCNCC3)s2)o1 [SNS-032] | 25 | 26.1 | 19.2 | 18.2 | 18.9 | 12.7 | 19.2 | 31.8
Cc1cc2c(C(=O)NC[C@H](C)c3ccccc3)c(O)c(O)cc2c(O)c1-c1c(C)cc2c(C(=O)NC[C@H](C)c3ccccc3)c(O)c(O)cc2c1O [Sabutoclax] | 24.6 | 5.6 | 9.2 | 18 | 11.1 | 13 | 0.4 | 27.6
CC[C@@H](C(=O)[C@@H](C)[C@@H](O)[C@H](C)[C@@H]1O[C@@H]([C@@H](CC)C(=O)O)CC[C@@H]1C)[C@H]1O[C@]2(C=C[C@@H](O)[C@]3(CC[C@@](C)([C@H]4CC[C@](O)(CC)[C@H](C)O4)O3)O2)[C@H](C)C[C@@H]1C [Salinomycin] | 18.3 | 13.2 | 2.1 | 9.9 | 9.5 | 6.4 | 6.9 | 19.1
CC(C)n1nc(-c2ccc3oc(N)nc3c2)c2c(N)ncnc21 [Sapanisertib] | 11.7 | 11.1 | 7.9 | 8.6 | 10.2 | 10.1 | 9 | 13.2

Structure (SMILES) | drug sensitivity score [1] | drug sensitivity score [2] | drug sensitivity score [3] | drug sensitivity score [4] | drug sensitivity score [5] | drug sensitivity score [6] | drug sensitivity score [7] | drug sensitivity score [8]
CNC(=O)CN1CCC(Oc2cc3c(Nc4cccc(Cl)c4F)ncnc3cc2OC)CC1 [Sapitinib] | 0 | 0 | 0 | 0 | 0 | 0 | 0 | 0
CN1CCN(CCOc2cc(OC3CCOCC3)c3c(Nc4c(Cl)ccc5c4OCO5)ncnc3c2)CC1 [Saracatinib] | 2.8 | 0.9 | 0 | 1.8 | 4 | 2.3 | 0.8 | 0.3
CC1=C2C[C@H]3[C@@H](CC[C@@H]4C[C@H](NS(C)(=O)=O)CC[C@@]43C)[C@@H]2CC[C@@]2(C1)O[C@@H]1C[C@H](C)CN[C@H]1[C@H]2C [Saridegib] | 0.5 | 0 | 0 | 0 | 0 | 0 | 0 | 0
CC[C@H](CO)Nc1nc(NCc2ccccc2)c2ncn(C(C)C)c2n1 [Seliciclib] | 1.7 | 0 | 0 | 0 | 0 | 0.8 | 0 | 2.6
O=C(/C=C\n1cnc(-c2cc(C(F)(F)F)cc(C(F)(F)F)c2)n1)NNc1cnccn1 [Selinexor] | 18.7 | 8.4 | 13.3 | 8.2 | 9.2 | 9.6 | 11.5 | 12.4
Cc1cc(F)c(C(=O)Nc2cccc(-c3nncn3C(C)C)n2)cc1-n1cnc(C2CC2)c1 [Selonsertib] | 0 | 0 | 0 | 0 | 0 | 0 | 0 | 0
CN1CCN(C(=O)c2ccc3cc(CCNc4ncnc5ccc(C#N)cc45)ccc3c2)CC1 [Senexin B] | 0 | 0.1 | 0 | 0.9 | 0 | 1 | 1.2 | 0
COCC[n+]1c2c(n(Cc3cnccn3)c1C)C(=O)c1ccccc1C2=O [Sepantronium bromide] | 43.2 | 22.3 | 36.2 | 35.2 | 34.4 | 21.9 | 41 | 34.6
Nc1nc2cc(-c3ccc4ncc(C(=O)N5CCOCC5)n4c3)ccc2o1 [Serabelisib] | 0.1 | 0 | 0 | 0 | 0 | 0.5 | 0.3 | 0
O=C(O)c1ccc2c(c1)nc(Nc1cccc(Cl)c1)c1ccncc12 [Silmitasertib] | 7.3 | 3.4 | 2.7 | 2.4 | 2.3 | 3.2 | 9.2 | 3.3
CCC(C)(C)C(=O)O[C@H]1C[C@@H](C)C=C2C=C[C@H](C)[C@H](CC[C@@H]3C[C@@H](O)CC(=O)O3)[C@H]21 [Simvastatin] | 4.5 | 0.3 | 0.1 | 1 | 0 | 0 | 1 | 2.8
CO[C@H]1C[C@@H]2CC[C@@H](C)[C@@](O)(O2)C(=O)C(=O)N2CCCC[C@H]2C(=O)O[C@H]([C@H](C)C[C@@H]2CC[C@@H](O)[C@H](OC)C2)CC(=O)[C@H](C)/C=C(\C)[C@@H](O)[C@@H](OC)C(=O)[C@H](C)C[C@H](C)/C=C/C=C/C=C/1C [Sirolimus] | 4.5 | 1.2 | 0 | 0 | 0.9 | 0.2 | 0.2 | 0
COCCNCc1ccc(-c2cc3nccc(Oc4ccc(NC(=O)C5(C(=O)Nc6ccc(F)cc6)CC5)cc4F)c3s2)nc1 [Sitravatinib] | 2.1 | 2.4 | 0 | 1.9 | 2.3 | 2 | 2.6 | 0.6
Cc1c(C(=O)Nc2ccc(N3C[C@@H](C)O[C@@H](C)C3)nc2)cccc1-c1ccc(OC(F)(F)F)cc1 [Sonidegib] | 0.2 | 0.1 | 0 | 2.5 | 0 | 1.5 | 4.1 | 4.1
C=CCN(/C=C1/C(=O)O[C@H](COC)[C@@]2(C)C1=C(O)C(=O)C1=C2[C@H](OC(C)=O)C[C@]2(C)C(=O)CC[C@@H]12)CC=C [Sonolisib] | 0 | 0 | 0 | 0 | 0 | 0 | 0 | 0
CNC(=O)c1cc(Oc2ccc(NC(=O)Nc3ccc(Cl)c(C(F)(F)F)c3)cc2)ccn1 [Sorafenib] | 0 | 0 | 0 | 0 | 0 | 1 | 1.4 | 0
CN1CCN(c2nc(C3=C(c4c[nH]c5ccccc45)C(=O)NC3=O)c3ccccc3n2)CC1 [Sotrastaurin] | 0 | 3.7 | 0 | 0 | 0 | 3.2 | 0.3 | 0
C=CC(=O)Nc1cccc(Nc2nc(Nc3ccc(OCCOC)cc3)ncc2F)c1 [Spebrutinib] | 1.1 | 1 | 0 | 0.9 | 0.7 | 0.9 | 1 | 2.1
CC(C)n1cnc2c(NCCc3ccc(O)cc3)nc(-c3csc4ccccc34)nc21 [StemRegenin 1] | 2.5 | 3.6 | 0 | 1.3 | 0 | 1.5 | 3.4 | 1.1
